According to patent US20250041312A1, “METHODS OF ADMINISTERING A MODULATOR OF HEMOGLOBIN” (Global Blood Therapeutics, Inc., priority 2021, published 2025):
Read-outs that look alike come from different tables or passages of the source. Marks after values point to notes of the source that are not given here.

Key:
Assay type in all cases: in vivo, human
[1] = Single ascending dose (SAD) study in healthy volunteers: safety and tolerability (TEAEs)
Procedure: To evaluate the safety and tolerability of single ascending doses of Compound I, 48 healthy volunteers (42 in the fasted state and 6 in the fed state) aged 18 to 55 years old were administered single ascending doses (50 mg to 2200 mg) of Compound I, while 16 healthy volunteers (14 in the fasted state and 2 in the fed state) aged 18 to 55 years old were administered placebo in a double blind, randomized, sequential manner.
Primary endpoints were safety and tolerability; key secondary endpoints included PK and effect of food (high-fat meal).
The few that were considered drug-related resolved with little to no intervention.

[2] = Single 100 mg dose PK in SCD subjects; settings: for AUC(0-t) / Cmax / half-life / Tmax: human; for AUC(0-t) / Cmax: 100 mg; for Tmax: median
Procedure: The PK profile of a single 100 mg dose in whole blood and plasma was evaluated using standard noncompartmental analysis. The preliminary PK parameter estimates of Compound I in whole blood from SCD subjects differed from healthy subjects in terms of elimination t½, AUC, Tmax, and blood to plasma ratio. In brief, the elimination t½ and Tmax were nearly 3× faster or occurred earlier, respectively, in SCD than in healthy subjects, and the blood to plasma ratio was about 30% of the values in healthy subjects (most likely due to the fewer RBCs compared to healthy subjects). For the plasma compartment, the differences between the 2 populations were most notable in terms of elimination t1/2, which again was about 2.5 times faster in SCD.

red blood cells = test: Ektacytometry (Lorrca Oxygenscan) red blood cell deformability, SCD patients
Source text: An ektacytometer laser optical rotational red cell analyzer (Lorrca; RR Mechatronics, NL) was used to analyze deformability of red blood cells using a defined value of shear stress with an increasing osmotic gradient (Osmoscan) as well as a newer technology to subject these cells to gradual deoxygenation (Oxygenscan).

[3] = HV single 50 mg, blinded, n=8 incl. placebo
[4] = HV single 50 mg, unblinded, n=6
[5] = HV single 100 mg, blinded, n=8 incl. placebo
[6] = HV single 100 mg, unblinded, n=6
[7] = HV single 200 mg fed (high-fat meal), blinded, n=8 incl. placebo
[8] = HV single 200 mg fed (high-fat meal), unblinded, n=6
[9] = HV single 200 mg, blinded, n=8 incl. placebo
[10] = HV single 200 mg, unblinded, n=6
[11] = HV single 400 mg, blinded, n=8 incl. placebo
[12] = HV single 400 mg, unblinded, n=6
[13] = HV single 800 mg, blinded, n=8 incl. placebo
[14] = HV single 800 mg, unblinded, n=6
[15] = HV single 1400 mg, blinded, n=8 incl. placebo
[16] = HV single 1400 mg, unblinded, n=6
[17] = HV single 2200 mg, blinded, n=8 incl. placebo
[18] = HV single 2200 mg, unblinded, n=6
[19] = plasma, SCD subjects n=6, single 100 mg, geometric mean
[20] = whole blood, SCD single 100 mg, mean
[21] = whole blood, SCD subjects n=6, single 100 mg, blood, geometric mean

- B:P ratio (mean AUC0-t blood:mean AUC0-t plasma) ([2]; SCD single 100 mg): 69.3
- B:P ratio AUC0-inf ([2]; SCD subjects n=6, single 100 mg): 69.3
- t½ ([2]; SCD subjects n=6, single 100 mg, blood, geometric mean): 9.8 days
- AUC(0-t) [2, 19]: 67.2 µg·h/mL
- Cmax [2, 19]: 1010 ng/mL
- AUC(0-t) [2, 20]: 4690 µg·h/mL
- Cmax [2, 20]: 16700 ng/mL
- AUC(0-t) [2, 21]: 4540 µg·h/mL
- Cmax [2, 21]: 16200 ng/mL
- half-life ([2]; SCD single 100 mg, whole blood, mean, read-out: t1/2 (converted)): 9.8 days
- Tmax ([2]; SCD single 100 mg, whole blood): 8 h
- half-life ([2]; SCD subjects n=6, single 100 mg, plasma, geometric mean, read-out: t½ (converted)): 10.5 days
- Tmax ([2]; SCD subjects n=6, single 100 mg, plasma): 1.5 h
- blood to plasma ratio in SCD as share of the values in healthy subjects ([2]; single 100 mg): about 30%
- elimination t1/2 in plasma, times faster in SCD ([2]; single 100 mg, plasma): about 2.5 times
- Tmax in whole blood, times earlier in SCD than in healthy subjects ([2]; single 100 mg, whole blood): ~3 ×
- elimination t½ in whole blood, times faster in SCD than in healthy subjects ([2]; single 100 mg, whole blood): ~3 ×
SMILES: O=Cc1c(O)cccc1OC[C@@H]1COCCN1C(=O)c1cccnc1CCO [Compound I, (S)-2-hydroxy-6-((4-(2-(2-hydroxyethyl)nicotinoyl)morpholin-3-yl)methoxy)benzaldehyde]
- adverse events indicative of tissue hypoxia ([1]; HV SAD): no adverse events indicative of tissue hypoxia
- grade of adverse events (CTCAE v5.0) ([1]; HV SAD, blinded study): mostly grade 1 or 2
- Number of SAEs [1, 3]: 0
- Number of TEAEs [1, 3]: 14
- Number of TEAEs grade ≥ 3 [1, 3]: 0
- Number of TEAEs leading to study drug discontinuation [1, 3]: 0
- Number of drug-related TEAEs [1, 3]: 2
- Number of SAEs [1, 4]: 0
- Number of TEAEs [1, 4]: 11
- Number of TEAEs grade ≥ 3 [1, 4]: 0
- Number of TEAEs leading to study drug discontinuation [1, 4]: 0
- Number of drug-related TEAEs [1, 4]: 1
- Number of SAEs [1, 5]: 0
- Number of TEAEs [1, 5]: 13
- Number of TEAEs grade ≥ 3 [1, 5]: 0
- Number of TEAEs leading to study drug discontinuation [1, 5]: 0
- Number of drug-related TEAEs [1, 5]: 1
- Number of SAEs [1, 6]: 0
- Number of TEAEs [1, 6]: 10
- Number of TEAEs grade ≥ 3 [1, 6]: 0
- Number of TEAEs leading to study drug discontinuation [1, 6]: 0
- Number of drug-related TEAEs [1, 6]: 1
- Number of SAEs [1, 7]: 0
- Number of TEAEs [1, 7]: 8
- Number of TEAEs grade ≥ 3 [1, 7]: 1
- Number of TEAEs leading to study drug discontinuation [1, 7]: 0
- Number of drug-related TEAEs [1, 7]: 0
- Number of SAEs [1, 8]: 0
- Number of TEAEs [1, 8]: 7
- Number of TEAEs grade ≥ 3 [1, 8]: 1
- Number of TEAEs leading to study drug discontinuation [1, 8]: 0
- Number of drug-related TEAEs [1, 8]: 0
- Number of SAEs [1, 9]: 0
- Number of TEAEs [1, 9]: 16
- Number of TEAEs grade ≥ 3 [1, 9]: 0
- Number of TEAEs leading to study drug discontinuation [1, 9]: 0
- Number of drug-related TEAEs [1, 9]: 0
- Number of SAEs [1, 10]: 0
- Number of TEAEs [1, 10]: 15
- Number of TEAEs grade ≥ 3 [1, 10]: 0
- Number of TEAEs leading to study drug discontinuation [1, 10]: 0
- Number of drug-related TEAEs [1, 10]: 0
- Number of TEAEs [1, 11]: 23^
- Number of TEAEs grade ≥ 3 [1, 11]: 1^
- Number of TEAEs leading to study drug discontinuation [1, 11]: 0^
- Number of drug-related TEAEs [1, 11]: 1^
- Number of SAEs ([1]; HV single 400 mg, blinded, n=8 incl. placebo, SAE was a traumatic brain injury, not drug related): 1^c
- Number of TEAEs [1, 12]: 16^
- Number of TEAEs grade ≥ 3 [1, 12]: 1^
- Number of TEAEs leading to study drug discontinuation [1, 12]: 0^
- Number of drug-related TEAEs [1, 12]: 1^
- Number of SAEs ([1]; HV single 400 mg, unblinded, n=6, SAE was a traumatic brain injury, not drug related): 1^c
- Number of SAEs [1, 13]: 0
- Number of TEAEs [1, 13]: 14
- Number of TEAEs grade ≥ 3 [1, 13]: 0
- Number of TEAEs leading to study drug discontinuation [1, 13]: 0
- Number of drug-related TEAEs [1, 13]: 3
- Number of SAEs [1, 14]: 0
- Number of TEAEs [1, 14]: 10
- Number of TEAEs grade ≥ 3 [1, 14]: 0
- Number of TEAEs leading to study drug discontinuation [1, 14]: 0
- Number of drug-related TEAEs [1, 14]: 3
- Number of SAEs [1, 15]: 0
- Number of TEAEs [1, 15]: 29
- Number of TEAEs grade ≥ 3 [1, 15]: 0
- Number of TEAEs leading to study drug discontinuation [1, 15]: 0
- Number of drug-related TEAEs [1, 15]: 4
- Number of SAEs [1, 16]: 0
- Number of TEAEs [1, 16]: 26
- Number of TEAEs grade ≥ 3 [1, 16]: 0
- Number of TEAEs leading to study drug discontinuation [1, 16]: 0
- Number of drug-related TEAEs [1, 16]: 4
- Number of SAEs [1, 17]: 0
- Number of TEAEs [1, 17]: 17
- Number of TEAEs grade ≥ 3 [1, 17]: 0
- Number of TEAEs leading to study drug discontinuation [1, 17]: 0
- Number of drug-related TEAEs [1, 17]: 4
- Number of SAEs [1, 18]: 0
- Number of TEAEs [1, 18]: 18
- Number of TEAEs grade ≥ 3 [1, 18]: 0
- Number of TEAEs leading to study drug discontinuation [1, 18]: 0
- Number of drug-related TEAEs [1, 18]: 4
- red blood cell health (Oxygenscan) (red blood cells; MAD-3 cohort SCD patients, 6 weeks (FIG. 13)): Improvement in red blood cell health
- red blood cell health by Oxygenscan testing (red blood cells; SCD patients, MAD-1 and MAD-2 (FIG. 9)): Improvements in red blood cell health were seen in all patients
